According to PubChem BioAssay (NCI):
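Interpolation was linear, between the two tested concentrations surrounding the appropriate level; five concentrations were tested over 48 hours in 96-well plates. TGI denotes the concentration required for complete inhibition of growth.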

Columns and labels:
Assay in all cases: NCI tumour cell line growth inhibition, 48 h
RXF 393 renal = tested on: RXF 393 renal
UACC-257 melanoma = tested on: UACC-257 melanoma
OVCAR-3 ovarian = tested on: OVCAR-3 ovarian
K-562 leukemia = tested on: K-562 leukemia
SK-MEL-28 melanoma = tested on: SK-MEL-28 melanoma
ACHN renal = tested on: ACHN renal
MOLT-4 leukemia = tested on: MOLT-4 leukemia
LOX IMVI melanoma = tested on: LOX IMVI melanoma
SNB-19 CNS = tested on: SNB-19 CNS
UACC-62 melanoma = tested on: UACC-62 melanoma
SR leukemia = tested on: SR leukemia
HL-60(TB) leukemia = tested on: HL-60(TB) leukemia
MDA-MB-231 breast = tested on: MDA-MB-231 breast
OVCAR-8 ovarian = tested on: OVCAR-8 ovarian
EKVX NSCLC = tested on: EKVX NSCLC
786-0 renal = tested on: 786-0 renal
IGROV1 ovarian = tested on: IGROV1 ovarian
NCI-H460 lung = tested on: NCI-H460 lung
MCF7 breast = tested on: MCF7 breast
OVCAR-5 ovarian = tested on: OVCAR-5 ovarian
HCT-15 colon = tested on: HCT-15 colon
KM12 colon = tested on: KM12 colon
SF-295 CNS = tested on: SF-295 CNS
MDA-N = tested on: MDA-N
MDA-MB-435 = tested on: MDA-MB-435
OVCAR-4 ovarian = tested on: OVCAR-4 ovarian
RPMI-8226 leukemia = tested on: RPMI-8226 leukemia
T-47D breast = tested on: T-47D breast
U251 CNS = tested on: U251 CNS
NCI-H226 lung = tested on: NCI-H226 lung
HCT-116 colon = tested on: HCT-116 colon
A549 NSCLC = tested on: A549 NSCLC
SN12C renal = tested on: SN12C renal
COLO 205 colon = tested on: COLO 205 colon
DU-145 prostate = tested on: DU-145 prostate
SW-620 colon = tested on: SW-620 colon
PC-3 prostate = tested on: PC-3 prostate
SK-MEL-5 melanoma = tested on: SK-MEL-5 melanoma
HS 578T breast = tested on: HS 578T breast
NCI-H23 lung = tested on: NCI-H23 lung
SNB-75 CNS = tested on: SNB-75 CNS
TK-10 renal = tested on: TK-10 renal
HOP-92 NSCLC = tested on: HOP-92 NSCLC
MALME-3M melanoma = tested on: MALME-3M melanoma
CAKI-1 renal = tested on: CAKI-1 renal
BT-549 breast = tested on: BT-549 breast
HT29 colon = tested on: HT29 colon
SK-OV-3 ovarian = tested on: SK-OV-3 ovarian
NCI-H522 lung = tested on: NCI-H522 lung
HCC-2998 colon = tested on: HCC-2998 colon
HOP-62 NSCLC = tested on: HOP-62 NSCLC
UO-31 renal = tested on: UO-31 renal
SK-MEL-2 melanoma = tested on: SK-MEL-2 melanoma
SF-539 CNS = tested on: SF-539 CNS
M14 melanoma = tested on: M14 melanoma
NCI/ADR-RES ovarian = tested on: NCI/ADR-RES ovarian
SF-268 CNS = tested on: SF-268 CNS
A498 renal = tested on: A498 renal
CCRF-CEM leukemia = tested on: CCRF-CEM leukemia

O=c1[nH]nc(-c2ccccc2)n1/N=C\CC/C=N\n1c(-c2ccccc2)n[nH]c1=O
TGI (RXF 393 renal): > 100 µM
TGI (UACC-257 melanoma): > 100 µM
TGI (OVCAR-3 ovarian): 51.8 µM
TGI (K-562 leukemia): > 100 µM
TGI (SK-MEL-28 melanoma): > 54.6 µM
TGI (ACHN renal): > 100 µM
TGI (MOLT-4 leukemia): > 31.6 µM
TGI (LOX IMVI melanoma): 27.1 µM
TGI (SNB-19 CNS): > 100 µM
TGI (UACC-62 melanoma): 43.5 µM
TGI (SR leukemia): > 94.8 µM
TGI (HL-60(TB) leukemia): > 100 µM
TGI (MDA-MB-231 breast): > 81.4 µM
TGI (OVCAR-8 ovarian): > 86.9 µM
TGI (EKVX NSCLC): > 100 µM
TGI (786-0 renal): 75.9 µM
TGI (IGROV1 ovarian): > 85.2 µM
TGI (NCI-H460 lung): > 74.5 µM
TGI (MCF7 breast): > 92.2 µM
TGI (OVCAR-5 ovarian): > 100 µM
TGI (HCT-15 colon): 49.9 µM
TGI (KM12 colon): > 100 µM
TGI (SF-295 CNS): > 100 µM
TGI (MDA-N): 44.3 µM
TGI (MDA-MB-435): 60.8 µM
TGI (OVCAR-4 ovarian): > 100 µM
TGI (RPMI-8226 leukemia): 99.8 µM
TGI (T-47D breast): 99 µM
TGI (U251 CNS): > 100 µM
TGI (NCI-H226 lung): > 72.2 µM
TGI (HCT-116 colon): > 66.7 µM
TGI (A549 NSCLC): > 100 µM
TGI (SN12C renal): 47 µM
TGI (COLO 205 colon): > 100 µM
TGI (DU-145 prostate): > 100 µM
TGI (SW-620 colon): > 100 µM
TGI (PC-3 prostate): > 77.5 µM
TGI (SK-MEL-5 melanoma): > 56 µM
TGI (HS 578T breast): > 83.7 µM
TGI (NCI-H23 lung): 21.7 µM
TGI (SNB-75 CNS): > 100 µM
TGI (TK-10 renal): > 100 µM
TGI (HOP-92 NSCLC): 84.6 µM
TGI (MALME-3M melanoma): 72.4 µM
TGI (CAKI-1 renal): > 100 µM
TGI (BT-549 breast): 60.9 µM
TGI (HT29 colon): 42.5 µM
TGI (SK-OV-3 ovarian): > 100 µM
TGI (NCI-H522 lung): > 100 µM
TGI (HCC-2998 colon): > 100 µM
TGI (HOP-62 NSCLC): 98.7 µM
TGI (UO-31 renal): > 100 µM
TGI (SK-MEL-2 melanoma): 50.9 µM
TGI (SF-539 CNS): > 69.5 µM
TGI (M14 melanoma): 47.1 µM
TGI (NCI/ADR-RES ovarian): 96.9 µM
TGI (SF-268 CNS): > 71 µM

Nc1ncnc2c1ncc(=O)n2C1CC(O)C(CO)O1 (centres undefined)
TGI (UACC-257 melanoma): > 100 µM
TGI (OVCAR-3 ovarian): > 100 µM
TGI (K-562 leukemia): > 100 µM
TGI (SK-MEL-28 melanoma): > 100 µM
TGI (ACHN renal): > 100 µM
TGI (A498 renal): > 100 µM
TGI (MOLT-4 leukemia): > 100 µM
TGI (LOX IMVI melanoma): > 100 µM
TGI (SNB-19 CNS): > 100 µM
TGI (UACC-62 melanoma): > 100 µM
TGI (SR leukemia): > 100 µM
TGI (MDA-MB-231 breast): > 100 µM
TGI (OVCAR-8 ovarian): > 100 µM
TGI (EKVX NSCLC): > 100 µM
TGI (786-0 renal): > 100 µM
TGI (IGROV1 ovarian): > 100 µM
TGI (NCI-H460 lung): > 100 µM
TGI (MCF7 breast): > 100 µM
TGI (OVCAR-5 ovarian): > 100 µM
TGI (HCT-15 colon): > 100 µM
TGI (KM12 colon): > 100 µM
TGI (SF-295 CNS): > 100 µM
TGI (MDA-N): > 100 µM
TGI (MDA-MB-435): > 100 µM
TGI (OVCAR-4 ovarian): > 100 µM
TGI (RPMI-8226 leukemia): > 100 µM
TGI (T-47D breast): > 100 µM
TGI (U251 CNS): > 100 µM
TGI (NCI-H226 lung): > 100 µM
TGI (HCT-116 colon): > 100 µM
TGI (A549 NSCLC): > 100 µM
TGI (SN12C renal): > 100 µM
TGI (COLO 205 colon): > 100 µM
TGI (DU-145 prostate): > 100 µM
TGI (SW-620 colon): > 100 µM
TGI (PC-3 prostate): > 100 µM
TGI (SK-MEL-5 melanoma): > 100 µM
TGI (HS 578T breast): > 100 µM
TGI (NCI-H23 lung): > 100 µM
TGI (SNB-75 CNS): > 100 µM
TGI (TK-10 renal): > 100 µM
TGI (HOP-92 NSCLC): > 100 µM
TGI (MALME-3M melanoma): > 100 µM
TGI (CAKI-1 renal): > 100 µM
TGI (BT-549 breast): > 100 µM
TGI (HT29 colon): > 100 µM
TGI (SK-OV-3 ovarian): > 100 µM
TGI (NCI-H522 lung): > 100 µM
TGI (HCC-2998 colon): > 100 µM
TGI (HOP-62 NSCLC): > 100 µM
TGI (UO-31 renal): > 100 µM
TGI (SK-MEL-2 melanoma): > 100 µM
TGI (SF-539 CNS): > 100 µM
TGI (M14 melanoma): > 100 µM
TGI (NCI/ADR-RES ovarian): > 100 µM
TGI (CCRF-CEM leukemia): > 100 µM
TGI (SF-268 CNS): > 100 µM
